Reference: US20140357512A1, “HISTONE DEACETYLASE (HDAC) BIOMARKERS IN MULTIPLE MYELOMA” (priority 2013, published 2014)

Tested on: human myeloma cell line MM.1S
Assay: SILAC acetylated-lysine peptide profiling, HDAC inhibitor vs DMSO (light/heavy ratio)
Assay type: cell-based
Text: An embodiment of the invention comprises utilizing the SILAC method in order to quantitate changes in protein expression between two or more populations of cells. The SILAC method is a technique based on mass spectrometry that detects differences in protein abundance among samples using non-radioactive isotopic labeling. The SILAC method is known in the art, and described in detail in Ong et al., “Stable Isotope Labeling by Amino Acids in Cell Culture, SILAC, as a Simple and Accurate Approach to Expression Proteomics”, Molecular & Cellular Proteomics, vol. 1, pp. 376-386 (2002), which is incorporated herein by reference in its entirety.
Briefly, the SILAC method involves growing two populations of cells in cell culture. The first population of cells is grown in growth media containing normal amino acids (“normal media”). The second population of cells is grown in media lacking a standard essential amino acid (such as lysine), but is then supplemented with a non-radioactive, isotopically labeled form of that essential amino acid (such as lysine labeled with ^13C atoms, rather than normal ^12C atoms), which is called “heavy media”. When the two populations of cells are each growing in the medium, they incorporate the amino acids into all of their proteins. The growth of cells maintained in the heavy media is no different from that in normal media. All peptides containing the heavy amino acids are heavier than their normal counterparts. The cells from each of the two populations of cells are lysed. The lysates from each of the two cell populations are then combined. The combined cell lysates are then analyzed by mass spectrometry. Pairs of chemically identical peptides of different stable isotope composition can be differentiated in a mass spectrometer due to their difference in mass. The ratio of peak intensities in the mass spectrum for such peptide pairs reflects the abundance ratio for the two proteins.
This example describes SILAC studies that were performed to compare the effects of three different HDAC inhibitors (Compound A, Compound B, and tubastatin A) to a control on a human multiple myeloma cell line. The HDAC inhibitors were also compared amongst themselves to determine differences in their effects.
A human myeloma cell line MM.1S was grown using either ^12C (light) or ^13C (heavy) lysine containing culture medium. The “heavy” cells were treated with DMSO as the control, and the “light” cells were treated with a single HDAC inhibitor at 37° C. for 6 hours. The heavy and light cells were lysed, and the lysates were mixed in 1:1 ratio and digested with the protease trypsin. The acetylated lysine containing peptides (due to the action of the HDAC inhibitor) in the digested peptide pool were captured by a non-specific anti-acetylated lysine antibody cocktail (the antibodies identify both light and heavy acetylated peptides), and subjected to mass spectrometry analysis in order to identify thousands of individual peptides.
Thousands of peptides were identified in pairs (^12C and ^13C) due to their known mass differences. The amino acid sequence and quantitative ratio (Light/Heavy) of a given peptide in two differentially treated cell lysates were then determined and annotated with their possible protein (gene) sources.
As stated above, three HDAC inhibitors (Compound A, Compound B, and Tubastatin A) were used. Thus, the SILAC method was performed three times, with a different HDAC inhibitor compared to a control each time. Accordingly, there are three pairs of quantitative data in the table below, i.e., Compound A:DMSO, Compound B:DMSO, and Tubastatin A:DMSO. A cut-off of 1.30 fold of change (increase or decrease) was then used to determine “changed” or “+” in the table, and any peptides with a fold of change less than 1.3 fold were determined to be “unchanged” or “0” in the table. Those peptides that were not identified were marked as “NA” in the table. […]

O=C(NO)c1cnc(NC2(c3cccc(F)c3)CCCCC2)nc1 [Compound B, 2-((1-(3-fluorophenyl)cyclohexyl)amino)-N-hydroxypyrimidine-5-carboxamide]
L/H ratio of acetylated peptide (LCMLYHPDK(ac)HRDPELK (SEQ ID NO: 389), Isoform 3 of DnaJ homolog subfamily C member 11 [45], DNAJC11): −0.69 log 2 | L/H ratio of acetylated peptide (LHSNYYK(ac)HK (SEQ ID NO: 371), Uncharacterized protein C6orf125 [69], C6orf125): 0.52 log 2 | L/H ratio of acetylated peptide (LHYK(ac)HESWLLHR (SEQ ID NO: 385), Deoxycytidine kinase [211], DCK): −0.43 log 2 | light to heavy ratio (L/H ratio) of acetylated peptide, log 2 scale (LIK(ac)VHLDK (SEQ ID NO: 215), 40S ribosomal protein S7 [155], RPS7): 0.00 | L/H ratio of acetylated peptide (LK(ac)ADVFK (SEQ ID NO: 375), Isoform 1 of Chromodomain-helicase-DNA-binding protein 4 [959], CHD4): −0.45 log 2 | L/H ratio of acetylated peptide (LK(ac)AEKYR (SEQ ID NO: 414), Isoform 1 of Leucine-rich repeat and IQ domain-containing protein 3 [557], LRRIQ3): −1.00 log 2 | L/H ratio of acetylated peptide LYK(ac)[…] (SEQ ID NO: 4) (LMNB1 [261], log 2 scale, drug vs DMSO): 0.48 | L/H ratio of acetylated peptide […](ac)LENAR (SEQ ID NO: 58) (LMNB1 [271], log 2 scale, drug vs DMSO): 0.00 | light to heavy ratio (L/H ratio) of acetylated peptide, log 2 scale (LNEQK(ac)LAQLEEAK (SEQ ID NO: 133), ATP synthase subunit b mitochondrial [131], ATP5F1): 0.00 | L/H ratio of acetylated peptide (LNPK(ac)[…] (SEQ ID NO: 448), Serine hydroxymethyltransferase mitochondrial [200], SHMT2): −0.41 log 2 | L/H ratio of acetylated peptide GFGYK(ac)GSCFHR (SEQ ID NO: 59) (LOC390956 [71], log 2 scale, drug vs DMSO): 0.00 | light to heavy ratio (L/H ratio) of acetylated peptide, log 2 scale (LSLDK(ac)VFR (SEQ ID NO: 226), Stomatin-like protein 2 [145], STOML2): 0.00 | light to heavy ratio (L/H ratio) of acetylated peptide, log 2 scale (LTEAKPVDK(ac)VK (SEQ ID NO: 221), cDNA FLJ60124 highly similar to Mitochondrial dicarboxylate carrier [142], SLC25A10): 0.00 | L/H ratio of acetylated peptide (LVQTAELTK(ac)VFEIR (SEQ ID NO: 398), Glia maturation factor gamma [119], GMFG): −0.80 log 2 | light to heavy ratio (L/H ratio) of acetylated peptide, log 2 scale (LYATMEK(ac)HK (SEQ ID NO: 251), Histone acetyltransferase p300 [1590], EP300): 0.00 | light to heavy ratio (L/H ratio) of acetylated peptide AVLK(ac)[…] (SEQ ID NO: 262) (Laminin receptor-like protein LAMRL5 [89], SNORA6, RPSAP15, SNORA62, RPSA, drug:DMSO): 0.00 log 2 | light to heavy ratio (L/H ratio) of acetylated peptide SYVSEK(ac)DVTSAK (SEQ ID NO: 628) (Leucine-rich PPR motif-containing protein mitochondrial [1332], gene LRPPRC, inhibitor:DMSO): 0.00 log 2 | L/H ratio of acetylated peptide ICCQFDFK(ac)R (SEQ ID NO: 60) (MAN2A1 [373], log 2 scale, drug vs DMSO): 0.00 | L/H ratio of acetylated peptide YLTNQK(ac)NSNSK(ac)NDR (SEQ ID NO: 17) (MEAF6 [69:74], log 2 scale, drug vs DMSO): 0.43 | light to heavy ratio (L/H ratio) of acetylated peptide, log 2 scale (MKENQK(ac)[…] (SEQ ID NO: 169), Isoform 2 of Heat shock protein HSP 90-alpha [611], HSP90AA1): 0.00 | L/H ratio of acetylated peptide (MLEK(ac)DVCEK (SEQ ID NO: 446), Isoform 1 of Protein RUFY3 [382], RUFY3): 0.62 log 2 | L/H ratio of acetylated peptide (MLK(ac)QMLFR (SEQ ID NO: 433), Proteasome subunit beta type-7 [127], PSMB7): −0.47 log 2 | L/H ratio of acetylated peptide TLVLSDK(ac)HSPQK(ac)K (SEQ ID NO: 5) (MLL3 [2809:2814], log 2 scale, drug vs DMSO): 0.38 | L/H ratio of acetylated peptide LNK(ac)DQWEER (SEQ ID NO: 10) (MSN [165], log 2 scale, drug vs DMSO): 0.71 | light to heavy ratio (L/H ratio) of acetylated peptide VHLSQK(ac)YK (SEQ ID NO: 343) (Matrin-3 [473], MATR3, SNHG4, drug:DMSO): 0.40 log 2 | light to heavy ratio (L/H ratio) of acetylated peptide FLNK(ac)LAEER (SEQ ID NO: 342) (Matrin-3 [836], MATR3, SNHG4, drug:DMSO): −0.44 log 2 | light to heavy ratio (L/H ratio) of acetylated peptide MTDK(ac)CFR (SEQ ID NO: 573) (Mitochondrial import inner membrane translocase subunit Tim13 [45], gene TIMM13, inhibitor:DMSO): 0.00 log 2 | light to heavy ratio (L/H ratio), log 2 scale, acetylated peptide YVK(ac)ALFR (SEQ ID NO: 771) (Mitochondrial import receptor subunit TOM70 [188], gene TOMM70A, drug:DMSO): 0.00 | light to heavy ratio (L/H ratio) of acetylated peptide LSLLSK(ac)FR (SEQ ID NO: 564) (Mitochondrial trifunctional protein beta subunit (Fragment) [100], gene HADHB, inhibitor:DMSO): 0.00 log 2 | light to heavy ratio (L/H ratio) of acetylated peptide EIFQNEK(ac)R (SEQ ID NO: 288) (NAD(P) transhydrogenase mitochondrial [70], NNT, drug:DMSO): 0.00 log 2 | light to heavy ratio (L/H ratio) of acetylated peptide AISPDK(ac)DNFYFDVK (SEQ ID NO: 284) (NAD(P) transhydrogenase mitochondrial [403], NNT, drug:DMSO): 0.00 log 2 | light to heavy ratio (L/H ratio) of acetylated peptide, log 2 scale (NIDPK(ac)PCTPR (SEQ ID NO: 148), Isoform 1 of DAZ-associated protein 1 [83], DAZAP1): 0.00
